Measurements from patent US20110294736A1, “COMPOUNDS AND METHODS FOR THE TREATMENT OF AUTOIMMUNE AND INFLAMMATORY DISEASE” (THE PROVOST, FELLOWS AND SCHOLARS OF THE HOLY AND UNDIVIDED …, priority 2008, published 2011).

How the values were obtained:
[1] = test system: MOG-specific IL-17, IFN-γ and TNF-α response of lymph node cells; assay: MOG-specific cytokines (ELISA) of restimulated lymph node cells after EAE induction; type: in vivo, mice; details: lymph node cells day 5
Procedure: EAE was induced in C57BL/6 mice by s.c injection with 150 μg of MOG35-55 in CFA supplemented with 4 mg/ml H37 Ra M. tuberculosis on day 0. All mice were injected i.p with PT on days 0 and 2. One group of mice were untreated, the second group were given 100 μg Tri-DAP 6 hours before immunization and a third group were given Tri-DAP (100 μg/mouse) on day 0 in MOG/CFA emulsion and again on days 1, 2 and 4. Mice were sacrificed on day 5 and lymph nodes cells were stimulated with MOG peptide (Myelin oligodendrocyte glycoprotein) (20-100 μg/ml) or as negative and positive controls, medium only or PMA and anti-CD3 respectively. After 72 hours supernatants were removed and analyzed for IL-17, TNF-α (TNF-alpha) and IFN-γ (interferon gamma) by ELISA.

Bone marrow derived DC = assay: EBI3 and IL-27p28 mRNA in bone marrow derived DC stimulated with TLR agonists; type: cell-based, murine; details: Tri-DAP 100 μg/ml 24 hours before LPS 10 ng/ml for 6 hours
Procedure: Bone marrow derived DC (1×10^6 cell/ml) were pretreated with Tri-DAP (100 μg/ml) for 24 hours prior to stimulation with the TLR agonists LPS (10 ng/ml) and CpG (5 μg/ml), and the MOG35-55 peptide (20 μg/ml) or medium alone (control) for 6 hours. EBI3 (FIG. 8 (a)) and IL-27p28 (FIG. 8 (b)) mRNA were evaluated by real time PCR normalized to 18S rRNA. Data are shown as fold induction over DC cultured in medium only.

BMDC = assay: EBI3 and IL-27p28 mRNA in BMDC pretreated with MAPK/MEK1/2 inhibitors, then TriDAP and LPS or CpG; type: cell-based, murine
Procedure: BMDC (1×10^6) were pretreated with either the MAPK inhibitor, SB203580 ([…]) or the MEK1/2 inhibitor, U0126 ([…]) for 30 minutes prior to stimulation with TriDAP […] or medium alone. After 24 hours the cells were then stimulated with LPS (lipopolysaccharide) (100 ng/ml), CpG ([…]) or medium alone. EBI3 and IL-27p28 mRNA were evaluated by real time PCR normalized to 18S rRNA. Data are shown as fold induction over DC cultured in medium only (FIG. 9 (a) and FIG. 9 (b)).

[2] = test system: PLP-specific IL-17 and IFN-γ; assay: PLP-specific IL-17 and IFN-γ (ELISA) of restimulated lymph node or spleen cells, relapsing-remitting EAE model; type: in vivo; details: SJL mice, TriDAP 100 μg/mouse every 2 days from day 12, day 26, PLP 1-25 μg/ml
Procedure: EAE was induced in SJL mice by immunization with […] (PLP) in complete Freund's adjuvant (CFA) followed by pertussis toxin (PT). Mice were treated with PBS (control) or TriDAP (100 μg/mouse) every 2 days from day 12. Mice were sacrificed on day 26, and lymph node or spleen cells restimulated in vitro with PLP (1-25 μg/ml). After 3 days, IL-17 and IFNγ production in supernatants were quantified by ELISA.

Spleen cells = assay: TLR agonist induced cytokines (ELISA) of spleen cells from treated mice; type: in vivo; details: TriDAP 100 μg/mouse/day i.p. 5 days vs PBS; LPS, CpG or Pam3Csk; 24 hours
Procedure: Mice treated with either PBS or TriDAP (100 μg/mouse/day i.p.) for 5 days. Spleen cells ([…]; 1×10^6/ml) were stimulated with medium alone (control), or with a Toll-like Receptor agonist selected from the following: the TLR4 agonist LPS (lipopolysaccharide) (100 ng/ml), the TLR9 agonist CpG (5 μg/ml), or the TL2 agonist Pam3Csk (500 ng/ml). Supernatants were collected after 24 hours and cytokine concentrations were quantified by ELISA.

[3] = test system: Dendritic cells cultured from human PBMC; assay: IL-27 and IL-10 ELISA in dendritic cells cultured from human PBMC; type: cell-based; details: 24 hours
Procedure: Dendritic cells cultured from human PBMC with IL-4 and GM-CSF were stimulated with TriDap (100 μg/ml), LPS (10 or 100 ng/ml), LPS and TriDAP or medium only. Supernatants were collected after 24 hours and IL-27 and IL-10 concentrations were quantified by ELISA. **P<0.01, ***P<0.001, with versus without TriDAP.

[4] = U0126 (5 mM) 30 minutes before TriDAP, LPS 100 ng/ml after 24 hours
[5] = TriDap 100 μg/ml with LPS 10 or 100 ng/ml

C[C@H](N)C(=O)N[C@H](CCC(=O)N[C@@H](CCC[C@@H](N)C(=O)O)C(=O)O)C(=O)O [Tri-DAP, L-alanyl-γ-D-glutamyl-meso-diaminopimelic acid]
MOG-specific T cell responses (IL-17, IFN-γ, TNF-α) ([1]; 100 μg Tri-DAP 6 hours before immunization, vs control EAE mice): significantly reduced
MOG-specific T cell responses (IL-17, IFN-γ, TNF-α) ([1]; Tri-DAP 100 μg/mouse on days 0, 1, 2 and 4): no detectable
LPS induced EBI3 gene expression (Bone marrow derived DC): enhancement
LPS induced IL-27p28 gene expression (Bone marrow derived DC): enhancement
Tri-DAP synergy with LPS for EBI3 gene expression under inhibition of ERK (BMDC; [4]): greatly enhances
Tri-DAP synergy with LPS for IL-27p28 gene expression under inhibition of ERK (BMDC; [4]): greatly enhances
Tri-DAP induced or Tri-DAP and TLR agonist induced IL-27 production on addition of an ERK inhibitor (BMDC; dendritic cells, ERK inhibitor added): significantly enhances
PLP-specific IL-17 levels ([2]; spleen and lymph node cells): on-going reduction
PLP-specific IFN-gamma levels ([2]; spleen cells): on-going reduction
IL-10 secreted by spleen cells after re-stimulation with TLR agonists (Spleen cells): higher concentrations
IL-27 secreted by spleen cells after re-stimulation with TLR agonists (Spleen cells): higher concentrations
TGF-beta secreted by spleen cells after re-stimulation with TLR agonists (Spleen cells): higher concentrations
IL-27 expression by human derived dendritic cells ([3]; TriDAP 100 μg/ml alone, without TLR agonist): express IL-27
IL-10 production by human dendritic cells ([3]; TriDap 100 μg/ml alone): Induces
IL-27 expression on co-stimulation with a Toll-like Receptor agonist [3, 5]: significant enhanced
TLR-induced IL-10 production by human dendritic cells [3, 5]: Enhances
